Experimental data from article PMC4774972, “Activity and Predicted Nephrotoxicity of Synthetic Antibiotics Based on Polymyxin B” (Journal of Medicinal Chemistry, 2016).
Values after ≈ are worked out from the molar mass of the structure shown. Like-named read-outs stand apart in the source and are kept apart here. Bridge positions count the residues as written; N and C are the ends. Square brackets hold non-standard residues; d marks the D form. Peptide text beside a SMILES is read from it. * marks the point of attachment. Phe(4-NH2) = Nc1ccc(C[C@H](N)C(=O)O)cc1; dDab = NCC[C@@H](N)C(=O)O; Octanoyl = CCCCCCCC(=O)*; Dab = NCC[C@H](N)C(=O)O

Key:
[1] = test system: K. pneumoniae CI 138-16357-20362, PmxR; details: MIC K. pneumoniae CI 138-16357-20362, PmxR (µg/mL)
[2] = test system: P. aeruginosa FADDI-PA070, PmxR; details: MIC P. aeruginosa FADDI-PA070, PmxR (µg/mL)
[3] = test system: A. baumannii CI Ptyela 100734512:2, PmxR; details: MIC A. baumannii CI Ptyela 100734512:2, PmxR (µg/mL)
[4] = test system: S. aureus ATCC 25923, MSSA; details: MIC S. aureus ATCC 25923, MSSA (µg/mL)
[5] = test system: K. pneumoniae CI Koprana 100650661:1, PmxR; details: MIC K. pneumoniae CI Koprana 100650661:1, PmxR (µg/mL)
K. pneumoniae ATCC 13883 = details: MIC K. pneumoniae ATCC 13883 (µg/mL)
[6] = test system: P. aeruginosa PA9704, PmxR; details: MIC P. aeruginosa PA9704, PmxR (µg/mL)
HepG2 = details: CC50 HepG2 (µM)
[7] = test system: K. pneumoniae CI 138-16357-20362, PmxR; experiment: microbe, parasite or virus in culture; assay type: cell-based, Klebsiella pneumoniae; details: carbapenem & polymyxin resistant clinical isolate; MHB, 5 × 10^5 CFU/mL, 18 h at 37 °C
Method: (§1) Bacteria were either obtained from American Type Culture Collection (ATCC; Manassas, VA, USA) or independent academic clinical isolate collections, as listed in Table S2. Bacteria were cultured in nutrient broth (NB; Bacto Laboratories, catalog no. 234000) or Muller Hinton broth (MHB; Bacto Laboratories, catalog no. 211443) at 37 °C overnight with shaking (∼180 rpm). A sample of each culture was then diluted 50-fold in fresh MHB and incubated at 37 °C for 1.5–3 h with shaking (∼180 rpm). Compound stock solutions were prepared as 0.64 or 2.56 mg/mL in water. The compounds, at twice the final desired concentration, were serially diluted 2-fold across the wells of 96-well plates (Polystyrene, Corning, catalogue No. 3370). Mid log phase bacterial cultures (after 1.5–3 h incubation) were diluted to a final concentration of 5 × 10^5 colony forming units (CFU)/mL, and 50 μL was added to each well giving a final compound concentration range of 32 μg/mL to 0.015 μg/mL (128–0.06 μg/mL for colistin and polymyxin B against the polymyxin resistant clinical isolates). MICs were determined visually after 18 h of incubation at 37 °C, with the MIC defined as the lowest compound concentration at which no bacterial growth was visible.
(§2) Table S2. Bacterial strains used for Minimum Inhibitory Concentration (MIC) […]
(§3) Organism Strain Strain description Strain Source
(§4) Escherichia coli ATCC 25922 FDA strain Seattle 1946 ATCC
(§5) Klebsiella pneumoniae ATCC 13883 Control strain ATCC
(§6) Klebsiella pneumoniae ATCC 700603 Multi-drug resistant ATCC
(§7) Klebsiella pneumoniae BAA-2146 Metallo-beta-lactamase- ATCC
(§8) Acinetobacter baumannii ATCC 19606 Type strain ATCC
(§9) Pseudomonas aeruginosa ATCC 27853 Type strain ATCC
(§10) Pseudomonas aeruginosa FADDI-PA070 Clinical isolate, Nation and Li labs, polymyxin resistant Monash University
(§11) Clinical isolate, Wang Hengzhuang, Pseudomonas aeruginosa PA9704 polymyxin resistant University Hospital of […]
(§12) Ptyela Clinical isolate, Ilias Karaiskos and Acinetobacter baumannii Carbapenem & Helen Giamarellou
(§13) Clinical isolate, Medicine, Hygeia
(§14) Klebsiella pneumoniae Koprana Carbapenem, & General Hospital, […]
(§15) Clinical isolate, (Instituto Dante […]
(§16) polymyxin resistant Cardiologia, São […]

[8] = test system: K. pneumoniae CI Koprana 100650661:1, PmxR; experiment: microbe, parasite or virus in culture; assay type: cell-based, Klebsiella pneumoniae; details: carbapenem & polymyxin resistant clinical isolate; MHB, 5 × 10^5 CFU/mL, 18 h at 37 °C
Method: as §1, §2, §3, §4, §5, §6, §7, §8, §9, §10, §11, §12, §13, §14, §15, §16

A. baumannii ATCC 19606 = details: MIC A. baumannii ATCC 19606 (µg/mL)
[9] = test system: A. baumannii CI Ptyela 100734512:2, PmxR; experiment: microbe, parasite or virus in culture; assay type: cell-based, Acinetobacter baumannii; details: carbapenem & polymyxin resistant clinical isolate; MHB, 5 × 10^5 CFU/mL, 18 h at 37 °C
Method: as §1, §2, §3, §4, §5, §6, §7, §8, §9, §10, §11, §12, §13, §14, §15, §16

[10] = test system: S. aureus ATCC 25923, MSSA; experiment: microbe, parasite or virus in culture; assay type: cell-based, Staphylococcus aureus
Method: as §1, §2, §3, §4, §5, §6, §7, §8, §9, §10, §11, §12, §13, §14, §15, §16

HepG2 cells = experiment: Cytotoxicity assay (resazurin assay); assay type: cell-based, human; details: 4000 cells/well, 24 h incubation with compound, fluorescence 560/590
Method: Cytotoxicity to HEK293 and HepG2 cells was determined using the resazurin assay.[67],[68] […] Compounds were then added into each well. After 24 h incubation, 5 μM resazurin was added per well and incubated at 37 °C for 2 h. Fluorescence intensity was then read using a Polarstar Omega with excitation/emission 560/590. The data were then analyzed using GraphPad Prism 6 software. CC50 values were determined using GraphPad Prism 6 software (Inc. La Jolla, CA).

Row | SMILES | MIC [1] | MIC [2] | MIC [3] | MIC [4] | MIC [5] | MIC (K. pneumoniae ATCC 13883) | MIC [6] | CC50 (HepG2) | MIC K. pneumoniae CI 138-16357-20362, PmxR [7] | MIC K. pneumoniae CI Koprana 100650661:1, PmxR [8] | MIC (A. baumannii ATCC 19606) | MIC A. baumannii CI Ptyela 100734512:2, PmxR [9] | MIC S. aureus ATCC 25923, MSSA ([10]; ATCC 25923, 18 h) | HepG2 - CC50 (HepG2 cells) | MIC ([10]; Staphylococcus aureus, 18 h, read-out: MIC S. aureus ATCC 25923, MSSA)
1 | CCCCCCCC(=O)N[C@@H](CCN)C(=O)N[C@H](C(=O)N[C@@H](CCN)C(=O)N[C@H]1CCNC(=O)[C@H]([C@@H](C)O)NC(=O)[C@H](CCCNC(=N)N)NC(=O)[C@H](CCN)NC(=O)[C@H](CC(C)C)NC(=O)[C@@H](Cc2ccccc2)NC(=O)[C@H](CCN)NC1=O)[C@@H](C)O [Compound 21] (Octanoyl-[Dab]T[Dab][Dab][Dab][dF]L[Dab]RT; lactam 4-C) | > 32 µg/mL | > 32 µg/mL | > 32 µg/mL | > 32 µg/mL | > 32 µg/mL | > 32 µg/mL | > 32 µg/mL | > 300 µM | >32 µg/mL | >32 µg/mL | – | – | – | – | –
2 | CCCCCCCC(=O)N[C@@H](CCN)C(=O)N[C@H](C(=O)N[C@H](CO)C(=O)N[C@H]1CCNC(=O)[C@H]([C@@H](C)O)NC(=O)[C@H](CCN)NC(=O)[C@H](CCN)NC(=O)[C@H](CC(C)C)NC(=O)[C@@H](Cc2ccccc2)NC(=O)[C@H](CCN)NC1=O)[C@@H](C)O [Compound 37] (Octanoyl-[Dab]T[dS][Dab][Dab][dF]L[Dab][Dab]T; lactam 4-C) | > 32 µg/mL | > 32 µg/mL | > 32 µg/mL | > 32 µg/mL | > 32 µg/mL | – | > 32 µg/mL | > 300 µM | >32 µg/mL | >32 µg/mL | – | – | – | – | –
3 | CCCCCCCC(=O)N[C@@H](CCN)C(=O)N[C@H](C(=O)N[C@@H](CCN)C(=O)N[C@H]1CCNC(=O)[C@H]([C@@H](C)O)NC(=O)[C@H](CCN)NC(=O)[C@H](CCN)NC(=O)[C@H](CC(C)C)NC(=O)[C@@H](Cc2ccccc2)NC(=O)[C@H](CCCNC(=N)N)NC1=O)[C@@H](C)O [Compound 35] (Octanoyl-[Dab]T[Dab][Dab]R[dF]L[Dab][Dab]T; lactam 4-C) | > 32 µg/mL | > 32 µg/mL | > 32 µg/mL | > 32 µg/mL | > 32 µg/mL | > 32 µg/mL | > 32 µg/mL | > 300 µM | >32 µg/mL | >32 µg/mL | > 32 µg/mL | – | – | – | –
4 | CCCCCCCC(=O)N[C@@H](CCN)C(=O)N[C@H](C(=O)N[C@@H](CCN)C(=O)N[C@H]1CCNC(=O)[C@H]([C@@H](C)O)NC(=O)[C@H](CCNC(=O)[C@@H](N)CCC(=O)O)NC(=O)[C@H](CCN)NC(=O)[C@H](CC(C)C)NC(=O)[C@@H](Cc2ccccc2)NC(=O)[C@H](CCN)NC1=O)[C@@H](C)O [Compound 19] (Octanoyl-[Dab]T[Dab][Dab][Dab][dF]L[Dab][Dab](Glu)T; lactam 4-C) | > 32 µg/mL | > 32 µg/mL | > 32 µg/mL | > 32 µg/mL | > 32 µg/mL | – | > 32 µg/mL | > 300 µM | >32 µg/mL | >32 µg/mL | – | – | – | – | –
5 | CCCCCCCC(=O)N[C@@H](CCN)C(=O)N[C@H](C(=O)N[C@@H](CCN)C(=O)N[C@H]1CCNC(=O)[C@H]([C@@H](C)O)NC(=O)[C@H](CCN)NC(=O)[C@H](CCN)NC(=O)[C@H](CC(C)C)NC(=O)[C@@H](Cc2ccccc2)NC(=O)[C@H](CCNC(=O)[C@@H](N)CCCNC(=N)N)NC1=O)[C@@H](C)O [Compound 31] (Octanoyl-[Dab]T[Dab][Dab][Dab](Arg)[dF]L[Dab][Dab]T; lactam 4-C) | > 32 µg/mL | > 32 µg/mL | > 32 µg/mL | > 32 µg/mL | > 32 µg/mL | – | > 32 µg/mL | > 300 µM | >32 µg/mL | >32 µg/mL | – | – | – | – | –
6 | CCCCCCCC(=O)N[C@@H](CCN)C(=O)N[C@H](C(=O)N[C@H](CCN)C(=O)N[C@H]1CCNC(=O)[C@H]([C@@H](C)O)NC(=O)[C@H](CCN)NC(=O)[C@H](CCN)NC(=O)[C@H](CC(C)C)NC(=O)[C@@H](Cc2ccccc2)NC(=O)[C@H](CCN)NC1=O)[C@@H](C)O [Compound 36] (Octanoyl-[Dab]T[dDab][Dab][Dab][dF]L[Dab][Dab]T; lactam 4-C) | > 32 µg/mL | > 32 µg/mL | > 32 µg/mL | > 32 µg/mL | > 32 µg/mL | – | – | > 300 µM | >32 µg/mL | >32 µg/mL | – | >32 µg/mL | >32 µg/mL | >300 µM | –
7 | CCCCCCCC(=O)N[C@@H](CCN)C(=O)N[C@H](C(=O)N[C@@H](CCN)C(=O)N[C@H]1CCNC(=O)[C@H]([C@@H](C)O)NC(=O)[C@H](Cc2ccc(N)cc2)NC(=O)[C@H](CCN)NC(=O)[C@H](CC(C)C)NC(=O)[C@@H](Cc2ccccc2)NC(=O)[C@H](CCN)NC1=O)[C@@H](C)O [Compound 20] (Octanoyl-[Dab]T[Dab][Dab][Dab][dF]L[Dab][Phe(4-NH2)]T; lactam 4-C) | > 32 µg/mL | > 32 µg/mL | > 32 µg/mL | > 32 µg/mL | > 32 µg/mL | > 32 µg/mL | > 32 µg/mL | > 300 µM | >32 µg/mL | >32 µg/mL | > 32 µg/mL | – | – | – | –
8 | CN[C@@H](CC(C)C)C(=O)N[C@H]1C(=O)N[C@@H](CC(N)=O)C(=O)N[C@H]2C(=O)N[C@H]3C(=O)N[C@H](C(=O)N[C@@H](C(=O)O)c4cc(O)cc(O)c4-c4cc3ccc4O)[C@H](O)c3ccc(c(Cl)c3)Oc3cc2cc(c3O[C@H]2O[C@@H](CO)[C@H](O)[C@@H](O)[C@@H]2O[C@@H]2C[C@@](C)(N)[C@@H](O)[C@@H](C)O2)Oc2ccc(cc2Cl)[C@H]1O [Vancomycin, reference compound] | – | – | – | – | – | – | – | – | – | – | – | – | – | >300 µM | 2 µg/mL (≈ 1.38 µM)
9 | CCCCCCCC(=O)N[C@@H](CCN)C(=O)N[C@H](C(=O)N[C@@H](CCN)C(=O)N[C@H]1CCNC(=O)[C@H]([C@@H](C)O)NC(=O)[C@H](CCNC(=O)[C@@H](N)CCCNC(=N)N)NC(=O)[C@H](CCN)NC(=O)[C@H](CC(C)C)NC(=O)[C@@H](Cc2ccccc2)NC(=O)[C@H](CCN)NC1=O)[C@@H](C)O [Compound 18] (Octanoyl-[Dab]T[Dab][Dab][Dab][dF]L[Dab][Dab](Arg)T; lactam 4-C) | > 32 µg/mL | > 32 µg/mL | > 32 µg/mL | > 32 µg/mL | > 32 µg/mL | – | > 32 µg/mL | > 300 µM | >32 µg/mL | >32 µg/mL | – | – | – | – | –
10 | CCCCCCCC(=O)NCC(=O)N[C@@H](CCN)C(=O)N[C@H](C(=O)N[C@H]1CCNC(=O)[C@H]([C@@H](C)O)NC(=O)[C@H](CCN)NC(=O)[C@H](CCN)NC(=O)[C@H](CC(C)C)NC(=O)[C@@H](Cc2ccccc2)NC(=O)[C@H](CCN)NC1=O)[C@@H](C)O [Compound 41] (Octanoyl-G[Dab]T[Dab][Dab][dF]L[Dab][Dab]T; lactam 4-C) | > 32 µg/mL | > 32 µg/mL | > 32 µg/mL | > 32 µg/mL | > 32 µg/mL | – | > 32 µg/mL | > 300 µM | >32 µg/mL | >32 µg/mL | > 32 µg/mL | – | – | – | –
